Laboratory results taken from patent US12258327B2, “5-membered heteroaryl-containing aminopyridine compounds as EGFR inhibitors” (YUHAN CORPORATION, priority 2021, dated 2025).
Where two headings read alike, the source gives them in different places.

What was measured:
EGFR del19/T790M/C797S = EGFR del19/T790M/C797S (Homo sapiens, UniProt P00533, C797S/DEL746-750/T790M); experiment: Biochemical EGFR kinase assay (Lance Ultra TR-FRET), triple mutant del19/T790M/C797S
In short: (§1)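 Kinase activity is measured by TR-FRET phosphopeptide detection. Compounds span 0.003 μM to 10 μM; the 1 h reaction at room temperature is quenched with EDTA, then labelled antibody (2 nM) is incubated 60 min before reading.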

EGFR L858R/T790M/C797S = EGFR L858R/T790M/C797S (Homo sapiens, UniProt P00533, C797S/L858R/T790M); experiment: Biochemical EGFR kinase assay (Lance Ultra TR-FRET), triple mutant L858R/T790M/C797S
Chain of EGFR L858R/T790M/C797S (P00533 25-1210 T790M/C797S/L858R): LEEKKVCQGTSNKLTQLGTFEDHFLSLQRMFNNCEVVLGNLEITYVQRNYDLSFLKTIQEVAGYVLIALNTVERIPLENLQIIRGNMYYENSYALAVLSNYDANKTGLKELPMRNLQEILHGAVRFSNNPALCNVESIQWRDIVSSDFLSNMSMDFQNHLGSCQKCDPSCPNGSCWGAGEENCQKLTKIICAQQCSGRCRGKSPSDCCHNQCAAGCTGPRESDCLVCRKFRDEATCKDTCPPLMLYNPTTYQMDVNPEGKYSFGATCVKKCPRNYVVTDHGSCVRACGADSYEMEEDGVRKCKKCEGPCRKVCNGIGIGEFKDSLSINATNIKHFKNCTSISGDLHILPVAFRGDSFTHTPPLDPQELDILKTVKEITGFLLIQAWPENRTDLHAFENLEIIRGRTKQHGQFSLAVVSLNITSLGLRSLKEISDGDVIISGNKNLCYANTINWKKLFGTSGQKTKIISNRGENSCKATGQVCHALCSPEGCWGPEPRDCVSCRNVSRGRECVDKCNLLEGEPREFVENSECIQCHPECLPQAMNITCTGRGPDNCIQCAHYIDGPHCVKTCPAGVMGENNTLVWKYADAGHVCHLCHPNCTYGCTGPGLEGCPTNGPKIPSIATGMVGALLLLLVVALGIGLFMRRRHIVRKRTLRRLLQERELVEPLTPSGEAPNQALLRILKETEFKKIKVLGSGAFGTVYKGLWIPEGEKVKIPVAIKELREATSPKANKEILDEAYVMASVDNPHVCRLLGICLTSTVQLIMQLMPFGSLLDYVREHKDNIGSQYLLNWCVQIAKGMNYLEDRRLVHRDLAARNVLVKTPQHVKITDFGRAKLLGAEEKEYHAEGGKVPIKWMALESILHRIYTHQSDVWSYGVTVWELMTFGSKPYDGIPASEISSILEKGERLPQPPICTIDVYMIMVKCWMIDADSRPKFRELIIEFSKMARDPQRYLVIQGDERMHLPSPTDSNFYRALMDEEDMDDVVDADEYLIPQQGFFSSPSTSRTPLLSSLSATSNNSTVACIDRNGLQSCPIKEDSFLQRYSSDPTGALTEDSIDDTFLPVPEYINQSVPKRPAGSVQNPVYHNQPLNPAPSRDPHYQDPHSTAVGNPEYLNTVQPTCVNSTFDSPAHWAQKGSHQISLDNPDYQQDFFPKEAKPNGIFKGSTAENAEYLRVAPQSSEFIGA
In short: as §1

EGFR del19/C797S = EGFR del19/C797S (Homo sapiens, UniProt P00533, C797S/DEL746-750); experiment: Biochemical EGFR kinase assay (Lance Ultra TR-FRET), double mutant del19/C797S
Chain of EGFR del19/C797S (P00533 with tags, fused parts or gaps DEL746-750/C797S): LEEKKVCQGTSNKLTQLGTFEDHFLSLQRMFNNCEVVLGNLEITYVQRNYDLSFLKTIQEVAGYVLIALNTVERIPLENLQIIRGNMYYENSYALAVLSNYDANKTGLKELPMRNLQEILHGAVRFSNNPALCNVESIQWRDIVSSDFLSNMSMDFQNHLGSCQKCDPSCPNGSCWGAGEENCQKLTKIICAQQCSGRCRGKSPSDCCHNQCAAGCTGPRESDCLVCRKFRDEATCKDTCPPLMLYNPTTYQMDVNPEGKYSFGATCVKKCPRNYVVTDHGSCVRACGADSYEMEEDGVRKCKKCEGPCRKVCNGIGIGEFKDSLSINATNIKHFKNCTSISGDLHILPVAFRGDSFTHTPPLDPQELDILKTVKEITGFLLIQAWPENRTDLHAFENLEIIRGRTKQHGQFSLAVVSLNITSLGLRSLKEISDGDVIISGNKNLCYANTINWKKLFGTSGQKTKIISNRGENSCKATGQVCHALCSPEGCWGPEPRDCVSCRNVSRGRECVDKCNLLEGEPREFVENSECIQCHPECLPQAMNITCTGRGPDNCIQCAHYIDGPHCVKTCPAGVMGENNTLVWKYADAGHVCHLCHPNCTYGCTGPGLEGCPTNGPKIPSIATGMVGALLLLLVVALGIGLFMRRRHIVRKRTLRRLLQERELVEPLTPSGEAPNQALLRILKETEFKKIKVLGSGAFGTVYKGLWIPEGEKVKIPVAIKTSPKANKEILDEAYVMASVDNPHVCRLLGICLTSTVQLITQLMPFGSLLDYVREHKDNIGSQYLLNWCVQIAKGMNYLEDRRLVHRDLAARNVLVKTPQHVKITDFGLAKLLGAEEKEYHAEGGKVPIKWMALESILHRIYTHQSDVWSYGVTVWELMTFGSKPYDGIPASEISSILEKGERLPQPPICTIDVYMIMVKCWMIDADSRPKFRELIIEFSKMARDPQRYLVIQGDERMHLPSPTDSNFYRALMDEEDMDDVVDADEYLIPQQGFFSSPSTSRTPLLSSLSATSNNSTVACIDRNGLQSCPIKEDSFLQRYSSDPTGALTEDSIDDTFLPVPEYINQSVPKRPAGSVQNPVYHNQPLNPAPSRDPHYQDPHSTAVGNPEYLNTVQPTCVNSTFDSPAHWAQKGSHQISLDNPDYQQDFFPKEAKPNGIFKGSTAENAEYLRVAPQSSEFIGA
In short: as §1

EGFR L858R/C797S = EGFR L858R/C797S (Homo sapiens, UniProt P00533, C797S/L858R); experiment: Biochemical EGFR kinase assay (Lance Ultra TR-FRET), double mutant L858R/C797S
In short: as §1

EGFR wildtype (WT) = EGFR wildtype (WT) (Homo sapiens, UniProt P00533); experiment: Biochemical EGFR kinase assay (Lance Ultra TR-FRET), wildtype
Chain of EGFR wildtype (WT) (P00533 25-1210): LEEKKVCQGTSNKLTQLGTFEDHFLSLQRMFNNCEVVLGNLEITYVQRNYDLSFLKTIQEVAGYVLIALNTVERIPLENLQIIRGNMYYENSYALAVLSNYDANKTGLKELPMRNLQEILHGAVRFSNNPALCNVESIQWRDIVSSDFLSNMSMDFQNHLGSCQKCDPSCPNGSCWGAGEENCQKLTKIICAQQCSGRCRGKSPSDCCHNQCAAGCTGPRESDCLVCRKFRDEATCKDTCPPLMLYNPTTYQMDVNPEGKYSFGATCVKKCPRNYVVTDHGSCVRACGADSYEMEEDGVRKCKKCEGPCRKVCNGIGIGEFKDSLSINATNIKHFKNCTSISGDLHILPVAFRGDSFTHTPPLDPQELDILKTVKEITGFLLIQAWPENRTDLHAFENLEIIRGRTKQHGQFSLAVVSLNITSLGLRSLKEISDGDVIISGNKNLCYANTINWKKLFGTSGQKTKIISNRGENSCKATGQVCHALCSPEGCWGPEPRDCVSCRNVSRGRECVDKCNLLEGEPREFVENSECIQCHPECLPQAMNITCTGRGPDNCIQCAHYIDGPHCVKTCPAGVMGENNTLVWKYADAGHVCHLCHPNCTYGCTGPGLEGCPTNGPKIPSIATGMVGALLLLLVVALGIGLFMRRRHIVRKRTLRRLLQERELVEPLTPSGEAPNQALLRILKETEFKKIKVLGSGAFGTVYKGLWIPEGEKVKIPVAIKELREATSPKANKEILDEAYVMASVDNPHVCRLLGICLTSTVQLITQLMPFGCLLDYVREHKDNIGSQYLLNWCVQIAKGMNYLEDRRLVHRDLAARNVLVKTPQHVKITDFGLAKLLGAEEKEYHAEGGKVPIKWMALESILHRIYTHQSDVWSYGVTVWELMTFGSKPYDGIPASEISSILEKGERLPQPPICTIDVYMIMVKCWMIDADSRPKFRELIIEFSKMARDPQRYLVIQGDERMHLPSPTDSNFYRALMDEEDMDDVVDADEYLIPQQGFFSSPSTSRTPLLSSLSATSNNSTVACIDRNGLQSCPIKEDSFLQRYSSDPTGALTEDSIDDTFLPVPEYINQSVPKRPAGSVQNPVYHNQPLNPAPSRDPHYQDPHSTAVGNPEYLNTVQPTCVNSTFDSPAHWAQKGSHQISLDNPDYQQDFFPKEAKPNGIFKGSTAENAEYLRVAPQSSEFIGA
In short: as §1

[1] = IC50 del19/T790M/C797S (nM) 100 μM ATP, 100 μM ATP
[2] = IC50 L858R/T790M/C797S (nM) 100 μM ATP, 100 μM ATP
[3] = IC50 del19/C797S (nM) 100 μM ATP, 100 μM ATP
[4] = IC50 L858R/C797S (nM) 100 μM ATP, 100 μM ATP
[5] = IC50 WT (nM) 100 μM ATP, 100 μM ATP
[6] = Km ATP, read-out: IC50 del19/T790M/C797S (nM) Km ATP
[7] = Km ATP, read-out: IC50 L858R/T790M/C797S (nM) Km ATP
[8] = Km ATP, read-out: IC50 del19/C797S (nM) Km ATP
[9] = Km ATP, read-out: IC50 L858R/C797S (nM) Km ATP
[10] = Km ATP, read-out: IC50 WT (nM) Km ATP
[11] = Km ATP, read-out: IC50 del19/T790M/C797S, Km ATP
[12] = Km ATP, read-out: IC50 L858R/T790M/C797S, Km ATP
[13] = Km ATP, read-out: IC50 del19/C797S, Km ATP
[14] = Km ATP, read-out: IC50 L858R/C797S, Km ATP
[15] = Km ATP, read-out: IC50 WT, Km ATP

Chain of EGFR del19/T790M/C797S (P00533 with tags, fused parts or gaps DEL746-750/T790M/C797S): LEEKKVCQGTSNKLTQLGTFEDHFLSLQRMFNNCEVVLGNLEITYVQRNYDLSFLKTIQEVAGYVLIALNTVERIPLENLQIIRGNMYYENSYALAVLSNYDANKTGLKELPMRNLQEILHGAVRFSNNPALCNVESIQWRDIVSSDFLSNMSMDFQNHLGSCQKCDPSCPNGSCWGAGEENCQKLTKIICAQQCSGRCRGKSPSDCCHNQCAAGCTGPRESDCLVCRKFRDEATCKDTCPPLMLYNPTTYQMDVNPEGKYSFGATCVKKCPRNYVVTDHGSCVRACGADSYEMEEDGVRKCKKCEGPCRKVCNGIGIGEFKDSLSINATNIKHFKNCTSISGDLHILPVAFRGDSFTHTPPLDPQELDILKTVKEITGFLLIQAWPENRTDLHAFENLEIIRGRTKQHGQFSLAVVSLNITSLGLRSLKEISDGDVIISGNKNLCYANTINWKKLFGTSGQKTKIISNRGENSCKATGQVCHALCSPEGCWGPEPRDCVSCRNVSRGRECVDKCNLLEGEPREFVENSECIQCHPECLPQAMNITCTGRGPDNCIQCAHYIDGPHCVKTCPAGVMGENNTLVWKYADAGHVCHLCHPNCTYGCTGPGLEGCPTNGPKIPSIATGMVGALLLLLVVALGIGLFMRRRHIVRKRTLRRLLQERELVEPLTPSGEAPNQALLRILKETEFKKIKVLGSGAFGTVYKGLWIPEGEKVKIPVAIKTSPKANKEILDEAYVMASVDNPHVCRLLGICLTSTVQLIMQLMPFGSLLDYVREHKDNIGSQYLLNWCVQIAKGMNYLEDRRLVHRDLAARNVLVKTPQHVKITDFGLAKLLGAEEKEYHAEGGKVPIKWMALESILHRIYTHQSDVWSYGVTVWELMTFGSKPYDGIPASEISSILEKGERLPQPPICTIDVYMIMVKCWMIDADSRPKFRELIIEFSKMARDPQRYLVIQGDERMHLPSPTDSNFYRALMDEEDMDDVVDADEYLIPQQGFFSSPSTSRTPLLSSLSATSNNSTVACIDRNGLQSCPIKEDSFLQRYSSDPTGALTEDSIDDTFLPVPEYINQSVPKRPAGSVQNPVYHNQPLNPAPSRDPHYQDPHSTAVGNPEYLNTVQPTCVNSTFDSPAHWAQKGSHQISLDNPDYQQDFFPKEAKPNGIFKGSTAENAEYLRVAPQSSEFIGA

Row | IC50 (EGFR del19/T790M/C797S; [1]) [nM] | IC50 (EGFR L858R/T790M/C797S; [2]) [nM] | IC50 (EGFR del19/C797S; [3]) [nM] | IC50 (EGFR L858R/C797S; [4]) [nM] | IC50 (EGFR wildtype (WT); [5]) [nM] | IC50 (EGFR del19/T790M/C797S; [6]) [nM] | IC50 (EGFR L858R/T790M/C797S; [7]) [nM] | IC50 (EGFR del19/C797S; [8]) [nM] | IC50 (EGFR L858R/C797S; [9]) [nM] | IC50 (EGFR wildtype (WT); [10]) [nM] | IC50 (EGFR del19/T790M/C797S; [11]) [nM] | IC50 (EGFR L858R/T790M/C797S; [12]) [nM] | IC50 (EGFR del19/C797S; [13]) [nM] | IC50 (EGFR L858R/C797S; [14]) [nM] | IC50 (EGFR wildtype (WT); [15]) [nM] | Structure (SMILES)
1 | – | – | – | – | – | 0.7 | 0.2 | 0.4 | 0.1 | 0.3 | – | – | – | – | – | CN(C)CC[C@H]1CC[C@@H](Nc2cc(Nc3ccnc(-c4cnn(S(=O)(=O)C5CC5)c4)n3)ncc2-c2ccn(CC(F)F)n2)CC1 [Example 251, N^2-(2-(1-(Cyclopropylsulfonyl)-1H-pyrazol-4-yl)pyrimidin-4-yl)-5-(1-(2,2-difluoroethyl)-1H-pyrazol-3-yl)-N^4-((1s,4s)-4-(2-(dimethylamino)ethyl)cyclohexyl)pyridine-2,4-diamine]
2 | – | – | – | – | – | – | – | – | – | – | 0.4 | 0.4 | 29.5 | 0.2 | 58.6 | C[C@]1(O)CC[C@@H](Nc2cc(Nc3ccnc(-c4cnn(CC(F)(F)F)c4)n3)ncc2-c2ccn(CC(F)F)n2)CC1 [Example 344, (1s,4s)-4-((5-(1-(2,2-Difluoroethyl)-1H-pyrazol-3-yl)-2-((2-(1-(2,2,2-trifluoroethyl)-1H-pyrazol-4-yl)pyrimidin-4-yl)amino)pyridin-4-yl)amino)-1-methylcyclohexan-1-ol]
3 | – | – | – | – | – | – | – | – | – | – | 3.4 | 1.2 | 17.4 | 8.3 | 147 | Cc1nn(CC(F)(F)F)cc1-c1cc(Nc2ncc(-c3ccn(CC(F)(F)F)n3)c(N[C@H]3CC[C@@](C)(O)CC3)n2)ccn1 [Example 370, (1s,4s)-1-Methyl-4-((2-((2-(3-methyl-1-(2,2,2-trifluoroethyl)-1H-pyrazol-4-yl)pyridin-4-yl)amino)-5-(1-(2,2,2-trifluoroethyl)-1H-pyrazol-3-yl)pyrimidin-4-yl)amino)cyclohexan-1-ol]
4 | 0.7 | 1 | 10.5 | 406 | > 10000 | 0.4 | 0.2 | 6 | 11.2 | 46 | – | – | – | – | – | C[C@]1(O)CC[C@@H](Nc2cc(Nc3nc(-c4cnn(S(=O)(=O)C5CC5)c4)ncc3F)ncc2-c2ccn(C(F)F)n2)CC1 [Example 316, (1s,4s)-4-((2-((2-(1-(Cyclopropylsulfonyl)-1H-pyrazol-4-yl)-5-fluoropyrimidin-4-yl)amino)-5-(1-(difluoromethyl)-1H-pyrazol-3-yl)pyridin-4-yl)amino)-1-methylcyclohexan-1-ol]
5 | – | – | – | – | – | – | – | – | – | – | 0.9 | 1.8 | 38.9 | 91 | 1980 | Cn1nc(-c2cnc(Nc3ccnc(-c4cnn(S(=O)(=O)C5CC5)c4)c3)nc2N[C@H]2CC[C@@H](F)CC2)cc1C(F)(F)F [Example 371, N^2-(2-(1-(Cyclopropylsulfonyl)-1H-pyrazol-4-yl)pyridin-4-yl)-N^4-((1s,4s)-4-fluorocyclohexyl)-5-(1-methyl-5-(trifluoromethyl)-1H-pyrazol-3-yl)pyrimidine-2,4-diamine]
6 | – | – | – | – | – | 0.4 | 0.2 | 1.7 | 2.8 | 6.5 | – | – | – | – | – | O=S(=O)(C1CC1)n1cc(-c2ncc(F)c(Nc3cc(N[C@H]4CC[C@@H](CN5CCC5)CC4)c(-c4ccn(C(F)F)n4)cn3)n2)cn1 [Example 327, N^4-((1s,4s)-4-(Azetidin-1-ylmethyl)cyclohexyl)-N^2-(2-(1-(cyclopropylsulfonyl)-1H-pyrazol-4-yl)-5-fluoropyrimidin-4-yl)-5-(1-(difluoromethyl)-1H-pyrazol-3-yl)pyridine-2,4-diamine]
7 | 0.3 | 0.3 | 0.3 | 2 | 565 | 0.3 | 0.2 | 0.2 | 0.1 | 0.5 | – | – | – | – | – | CN(C)C(=O)C[C@H]1CC[C@@H](Nc2cc(Nc3ccnc(-c4cnn(S(=O)(=O)C5CC5)c4)n3)ncc2-c2ccn(C)n2)CC1 [Example 236, 2-((1s,4s)-4-((2-((2-(1-(Cyclopropylsulfonyl)-1H-pyrazol-4-yl)pyrimidin-4-yl)amino)-5-(1-methyl-1H-pyrazol-3-yl)pyridin-4-yl)amino)cyclohexyl)-N,N-dimethylacetamide]

The next lines start with the compound.

Row | Structure (SMILES) | IC50 (EGFR del19/T790M/C797S; [1]) [nM] | IC50 (EGFR L858R/T790M/C797S; [2]) [nM] | IC50 (EGFR del19/C797S; [3]) [nM] | IC50 (EGFR L858R/C797S; [4]) [nM] | IC50 (EGFR wildtype (WT); [5]) [nM] | IC50 (EGFR del19/T790M/C797S; [6]) [nM] | IC50 (EGFR L858R/T790M/C797S; [7]) [nM] | IC50 (EGFR del19/C797S; [8]) [nM] | IC50 (EGFR L858R/C797S; [9]) [nM] | IC50 (EGFR wildtype (WT); [10]) [nM] | IC50 (EGFR del19/T790M/C797S; [11]) [nM] | IC50 (EGFR L858R/T790M/C797S; [12]) [nM] | IC50 (EGFR del19/C797S; [13]) [nM] | IC50 (EGFR L858R/C797S; [14]) [nM] | IC50 (EGFR wildtype (WT); [15]) [nM]
8 | O=S(=O)(C1CC1)n1cc(-c2nccc(Nc3cc(N[C@H]4CC[C@@H](O)CC4)c(-c4ccn(C(F)F)n4)cn3)n2)cn1 [Example 80, (1s,4s)-4-((2-((2-(1-(Cyclopropylsulfonyl)-1H-pyrazol-4-yl)pyrimidin-4-yl)amino)-5-(1-(difluoromethyl)-1H-pyrazol-3-yl)pyridin-4-yl)amino)cyclohexan-1-ol] | 0.7 | 0.8 | 1.2 | 1.4 | 214 | – | – | – | – | – | – | – | – | – | –
9 | CN[C@H]1CC[C@@H](Nc2cc(Nc3ccnc(-c4cnn(S(=O)(=O)C5CC5)c4)n3)ncc2-c2csc(C(C)(C)O)n2)CC1 [Example 56, 2-(4-(6-((2-(1-(Cyclopropylsulfonyl)-1H-pyrazol-4-yl)pyrimidin-4-yl)amino)-4-(((1s,4s)-4-(methylamino)cyclohexyl)amino)pyridin-3-yl)thiazol-2-yl)propan-2-ol] | 0.6 | 0.8 | 13.2 | 7.1 | > 10000 | – | – | – | – | – | – | – | – | – | –
10 | Cn1nc(-c2cnc(Nc3ccnc(-c4cnn(S(=O)(=O)C5CC5)c4)n3)cc2N[C@H]2CC[C@@H](F)CC2)cc1C(F)(F)F [Example 175, N^2-(2-(1-(Cyclopropylsulfonyl)-1H-pyrazol-4-yl)pyrimidin-4-yl)-N^4-((1s,4s)-4-fluorocyclohexyl)-5-(1-methyl-5-(trifluoromethyl)-1H-pyrazol-3-yl)pyridine-2,4-diamine] | – | – | – | – | – | 25.3 | 14.5 | 41.8 | 8 | 91.9 | – | – | – | – | –
11 | O=S(=O)(C1CC1)n1cc(-c2nccc(Nc3cc(NC[C@H]4C[C@H](O)C4)c(-c4ccn(C(F)F)n4)cn3)n2)cn1 [Example 34, (1r,3r)-3-(((2-((2-(1-(Cyclopropylsulfonyl)-1H-pyrazol-4-yl)pyrimidin-4-yl)amino)-5-(1-(difluoromethyl)-1H-pyrazol-3-yl)pyridin-4-yl)amino)methyl)cyclobutan-1-ol] | 0.9 | 1.6 | 4.2 | 53.3 | > 10000 | 0.4 | 0.2 | 1.9 | 2 | 19.4 | – | – | – | – | –
12 | CN(C)C[C@H]1CC[C@H](CNc2cc(Nc3ccnc(-c4cnn(S(=O)(=O)C5CC5)c4)n3)ncc2-c2csc(C(F)(F)F)n2)CC1 [Example 101, N^2-(2-(1-(Cyclopropylsulfonyl)-1H-pyrazol-4-yl)pyrimidin-4-yl)-N^4-(((1r,4r)-4-((dimethylamino)methyl)cyclohexyl)methyl)-5-(2-(trifluoromethyl)thiazol-4-yl)pyridine-2,4-diamine] | 0.3 | 0.3 | 0.4 | 3.8 | 828 | 0.3 | 0.1 | 0.4 | 0.8 | – | – | – | – | – | –
13 | O=S(=O)(C1CC1)n1cc(-c2nccc(Nc3cc(NCC4CCCC(O)C4)c(-c4ccn(C(F)F)n4)cn3)n2)cn1 (stereo not shown) [Example 32, 3-(((2-((2-(1-(Cyclopropylsulfonyl)-1H-pyrazol-4-yl)pyrimidin-4-yl)amino)-5-(1-(difluoromethyl)-1H-pyrazol-3-yl)pyridin-4-yl)amino)methyl)cyclohexan-1-ol] | 1.6 | 2.5 | 2.5 | 45.2 | > 10000 | 0.5 | 0.2 | 1 | 1.9 | 18.5 | – | – | – | – | –
14 | O=S(=O)(C1CC1)n1cc(-c2nccc(Nc3cc(NC[C@H]4C[C@H](CO)C4)c(-c4ccn(C(F)F)n4)cn3)n2)cn1 [Example 189, ((1r,3r)-3-(((2-((2-(1-(Cyclopropylsulfonyl)-1H-pyrazol-4-yl)pyrimidin-4-yl)amino)-5-(1-(difluoromethyl)-1H-pyrazol-3-yl)pyridin-4-yl)amino)methyl)cyclobutyl)methanol] | 0.4 | 0.2 | 1.8 | 27.1 | > 10000 | 0.5 | 0.3 | 1.2 | 3.1 | 20.1 | – | – | – | – | –
15 | C[C@]1(O)CC[C@@H](Nc2cc(Nc3ccnc(-c4cnn(CC(F)(F)F)c4)n3)ncc2-c2ccn(C(F)F)n2)CC1 [Example 137, (1s,4s)-4-((5-(1-(Difluoromethyl)-1H-pyrazol-3-yl)-2-((2-(1-(2,2,2-trifluoroethyl)-1H-pyrazol-4-yl)pyrimidin-4-yl)amino)pyridin-4-yl)amino)-1-methylcyclohexan-1-ol] | 1.2 | 0.9 | 65.7 | 269 | > 10000 | 0.5 | 0.2 | 24.3 | 35.9 | 1780 | – | – | – | – | –
